Measured values: PubChem BioAssay AID328 (DTP/NCI, 2004)
Values joined by “and” are separate entries in the source; they are usually repeats but may differ in a detail not shown here. Equal entries are not always repeated. Inconclusive results and toxic doses are left out.

System: BDF1 mice, P388 leukemia ip, median survival T/C
Assay: NCI In Vivo Anticancer Drug Screen. Data for tumor model P388 Leukemia (intraperitoneal) in B6D2F1 (BDF1) mice
Conditions: endpoint: median survival time, higher = longer survival
Outline: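 Compound-treated tumour-bearing mice were compared with vehicle-treated controls. Survival was recorded, and the value is the treated-group measurement divided by the control-group measurement (T/C).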

[1] = dose: 25.0 mg/kg/injection, schedule: Q01DX009 (ip), vehicle: Klucel (hydroxypropylcellulose) (HPC)
[2] = dose: 25.0 mg/kg/injection, schedule: Q04DX003 (ip), vehicle: Klucel (hydroxypropylcellulose) (HPC)
[3] = dose: 50.0 mg/kg/injection, schedule: Q01DX009 (ip), vehicle: Klucel (hydroxypropylcellulose) (HPC)
[4] = dose: 50.0 mg/kg/injection, schedule: Q04DX003 (ip), vehicle: Klucel (hydroxypropylcellulose) (HPC)
[5] = dose: 100.0 mg/kg/injection, schedule: Q01DX009 (ip), vehicle: Klucel (hydroxypropylcellulose) (HPC)
[6] = dose: 100.0 mg/kg/injection, schedule: Q04DX003 (ip), vehicle: Klucel (hydroxypropylcellulose) (HPC)
[7] = dose: 100.0 mg/kg/injection, schedule: Q04DX003 (ip), vehicle: saline with Tween-80
[8] = dose: 200.0 mg/kg/injection, schedule: Q04DX003 (ip), vehicle: saline with Tween-80
[9] = dose: 400.0 mg/kg/injection, schedule: Q04DX003 (ip), vehicle: saline with Tween-80
[10] = dose: 50.0 mg/kg/injection, schedule: Q01DX009 (ip), vehicle: other
[11] = dose: 100.0 mg/kg/injection, schedule: Q01DX009 (ip), vehicle: other
[12] = dose: 200.0 mg/kg/injection, schedule: Q01DX009 (ip), vehicle: other
[13] = dose: 100.0 mg/kg/injection, schedule: Q04DX003 (ip), vehicle: saline
[14] = dose: 200.0 mg/kg/injection, schedule: Q04DX003 (ip), vehicle: saline
[15] = dose: 400.0 mg/kg/injection, schedule: Q04DX003 (ip), vehicle: saline

## CCOC(=O)N(C)c1ccccc1
[1]
  T/C: 95 % of control
[2]
  T/C: 92 % of control
[3]
  T/C: 91 % of control
[4]
  T/C: 96 % of control
[5]
  T/C: 87 % of control
[6]
  T/C: 92 % of control

## COC(=O)CCCc1cc(O)c2c(c1O)C(=O)c1ccccc1C2=O
dose: 100.0 mg/kg/injection, schedule: Q01DX001 (ip), vehicle: saline sonified
  T/C: 100 % of control
dose: 200.0 mg/kg/injection, schedule: Q01DX001 (ip), vehicle: saline sonified
  T/C: 100 % of control
dose: 400.0 mg/kg/injection, schedule: Q01DX001 (ip), vehicle: saline sonified
  T/C: 95 % of control

## C=CCOc1ccccc1-c1nnn(C)n1
[7]
  T/C: 95 % of control
[8]
  T/C: 97 % of control
[9]
  T/C: 104 % of control

## O=[N+]([O-])c1ccc(S(=O)(=O)OCc2cccc(OS(=O)(=O)c3ccc([N+](=O)[O-])cc3)c2)cc1
dose: 100.0 mg/kg/injection, schedule: Q04DX003 (ip), vehicle: saline sonified
  T/C: 105 % of control
dose: 200.0 mg/kg/injection, schedule: Q04DX003 (ip), vehicle: saline sonified
  T/C: 116 % of control
dose: 400.0 mg/kg/injection, schedule: Q04DX003 (ip), vehicle: saline sonified
  T/C: 105 % of control

## C=CCSc1nc(N)nc2nc[nH]c12
dose: 100.0 mg/kg/injection, schedule: Q01DX009 (ip), vehicle: saline sonified
  T/C: 110 % of control
[7]
  T/C: 104 % of control
[8]
  T/C: 100 % of control
[9]
  T/C: 109 % of control

## CCCC(C(=O)OCCN(CC)CC)(c1ccccc1)c1ccccc1
dose: 54.0 mg/kg/injection, schedule: Q01DX001 (ip), vehicle: saline
  T/C: 105 % of control
dose: 90.0 mg/kg/injection, schedule: Q01DX001 (ip), vehicle: saline
  T/C: 104 % of control
dose: 150.0 mg/kg/injection, schedule: Q01DX001 (ip), vehicle: saline
  T/C: 105 % of control

## COc1cccc2c1C(=O)c1c(O)c3c(c(O)c1C2=O)C[C@@](O)(C(=O)O)C[C@@H]3OC1CC(N)C(O)C(C)O1 (stereo partly specified)
dose: 1.56 mg/kg/injection, schedule: Q01DX009 (ip), vehicle: water
  T/C: 100 % of control
dose: 3.12 mg/kg/injection, schedule: Q01DX009 (ip), vehicle: water
  T/C: 107 % of control and 109 % of control
dose: 6.25 mg/kg/injection, schedule: Q01DX009 (ip), vehicle: water
  T/C: 93 % of control

## OP(=S)(c1ccccc1)c1ccccc1
[10]
  T/C: 110 % of control
[11]
  T/C: 106 % of control
[12]
  T/C: 108 % of control

## CN(C)c1ncnc2c1ncn2C1OC(CO)C(N)C1O (stereo unspecified)
dose: 14.0 mg/kg/injection, schedule: Q01DX009 (ip), vehicle: saline
  T/C: 95 % of control
dose: 22.0 mg/kg/injection, schedule: Q01DX009 (ip), vehicle: saline
  T/C: 100 % of control
dose: 50.0 mg/kg/injection, schedule: Q01DX009 (ip), vehicle: saline
  T/C: 150 % of control and 177 % of control

## N#Cc1cnn2c(=O)[nH]cnc12
[10]
  T/C: 100 % of control
[11]
  T/C: 100 % of control
[13]
  T/C: 100 % of control
[12]
  T/C: 100 % of control
[14]
  T/C: 100 % of control
[15]
  T/C: 118 % of control

## CC(=O)Nc1nccs1
[1]
  T/C: 104 % of control
[2]
  T/C: 95 % of control
[3]
  T/C: 95 % of control
[4]
  T/C: 91 % of control
[5]
  T/C: 109 % of control
[6]
  T/C: 95 % of control

## Cc1cccc(=O)n1CCC#N
[13]
  T/C: 96 % of control
[14]
  T/C: 96 % of control
[15]
  T/C: 100 % of control
